C[N+](C)(C)CCO.[Cl-]
Conditions | solubility (mole fraction)
in ethanol, 269.8 K | 0.017
in ethanol, 276.4 K | 0.027
in ethanol, 281.8 K | 0.038
in ethanol, 287.2 K | 0.054
in ethanol, 290.5 K | 0.066
in ethanol, 292.4 K | 0.072
in ethanol, 296.7 K | 0.082
in ethanol, 300.5 K | 0.089
in ethanol, 305.7 K | 0.098
in ethanol, 308.4 K | 0.109
in ethanol, 315.3 K | 0.125
in ethanol, 321.6 K | 0.138
in n-butanol, 314.6 K | 0.031
in n-butanol, 321.2 K | 0.049
in n-butanol, 328.6 K | 0.068
in n-butanol, 340.8 K | 0.086
in n-butanol, 346.4 K | 0.109
in n-butanol, 349.4 K | 0.131
in n-butanol, 352.9 K | 0.147
in n-propanol, 288.9 K | 0.015
in n-propanol, 295.7 K | 0.023
in n-propanol, 302.3 K | 0.039
in n-propanol, 308.7 K | 0.05
in n-propanol, 309.6 K | 0.059
in n-propanol, 316.5 K | 0.073
in n-propanol, 323.2 K | 0.086
in n-propanol, 330.7 K | 0.108
in n-propanol, 335.3 K | 0.129
in n-propanol, 338 K | 0.153

C[N+](C)(C)CCOC(=O)CCCC(=O)O.[Cl-]
Conditions | solubility (mole fraction)
in ethanol, 300.2 K | 0.006
in ethanol, 310.6 K | 0.008
in ethanol, 316.8 K | 0.01
in ethanol, 318.5 K | 0.012
in ethanol, 322.1 K | 0.017
in ethanol, 325.4 K | 0.023
in ethanol, 333.2 K | 0.033
in ethanol, 335.8 K | 0.039
in ethanol, 338.1 K | 0.043
in ethanol, 339.4 K | 0.055
in n-butanol, 304.8 K | 0.001
in n-butanol, 318.7 K | 0.0019
in n-butanol, 323.8 K | 0.0022
in n-butanol, 327.5 K | 0.0025
in n-butanol, 330.4 K | 0.0029
in n-butanol, 335.1 K | 0.0035
in n-butanol, 341 K | 0.004
in n-propanol, 305.4 K | 0.002
in n-propanol, 306.6 K | 0.003
in n-propanol, 309.4 K | 0.003
in n-propanol, 315.5 K | 0.004
in n-propanol, 319.9 K | 0.005
in n-propanol, 324.6 K | 0.008
in n-propanol, 331.2 K | 0.011
in n-propanol, 335.1 K | 0.013
in n-propanol, 338.5 K | 0.017

CC(=O)[O-].C[N+](C)(C)CCO
Conditions | solubility (mole fraction)
in ethanol, 259.8 K | 0.049
in ethanol, 261.8 K | 0.067
in ethanol, 263.9 K | 0.09
in ethanol, 265.7 K | 0.112
in ethanol, 267.1 K | 0.13
in ethanol, 267.8 K | 0.143
in ethanol, 271.7 K | 0.174
in ethanol, 272.1 K | 0.184
in ethanol, 276.6 K | 0.228
in ethanol, 278.5 K | 0.252
in ethanol, 282.8 K | 0.29
in ethanol, 286.1 K | 0.319
in n-butanol, 268.2 K | 0.023
in n-butanol, 273 K | 0.048
in n-butanol, 276.9 K | 0.074
in n-butanol, 279.9 K | 0.102
in n-butanol, 281.8 K | 0.136
in n-butanol, 284.2 K | 0.172
in n-butanol, 287.7 K | 0.209
in n-butanol, 290.4 K | 0.233
in n-butanol, 295.4 K | 0.293
in n-butanol, 297.7 K | 0.317
in n-propanol, 263.8 K | 0.0191
in n-propanol, 266.9 K | 0.0394
in n-propanol, 270.3 K | 0.062
in n-propanol, 273.1 K | 0.0844
in n-propanol, 274.1 K | 0.11
in n-propanol, 276 K | 0.144
in n-propanol, 277.7 K | 0.174
in n-propanol, 279.9 K | 0.211
in n-propanol, 280.9 K | 0.234
in n-propanol, 282.7 K | 0.269
in n-propanol, 285.2 K | 0.316

C[N+](C)(C)CCOC(=O)CCC(=O)O.[Cl-]
Conditions | solubility (mole fraction)
in ethanol, 299 K | 0.008
in ethanol, 300.8 K | 0.01
in ethanol, 305.5 K | 0.015
in ethanol, 310.9 K | 0.02
in ethanol, 313.1 K | 0.026
in ethanol, 315.6 K | 0.028
in ethanol, 320.5 K | 0.038
in ethanol, 322 K | 0.044
in n-butanol, 300.4 K | 0.003
in n-butanol, 308.8 K | 0.004
in n-butanol, 312.7 K | 0.006
in n-butanol, 318.8 K | 0.008
in n-butanol, 322.4 K | 0.009
in n-butanol, 326.4 K | 0.012
in n-butanol, 329.8 K | 0.014
in n-butanol, 338.8 K | 0.016
in n-propanol, 299.2 K | 0.006
in n-propanol, 305.5 K | 0.008
in n-propanol, 310.9 K | 0.01
in n-propanol, 318.7 K | 0.013
in n-propanol, 325.2 K | 0.02
in n-propanol, 328.9 K | 0.025
in n-propanol, 333.2 K | 0.031
in n-propanol, 336.1 K | 0.039
